31 compounds from US11667652B2, “MCL1 inhibitors” (Gilead Sciences, Inc., priority 2019, dated 2023) can be followed below.

Structures are written as SMILES.

One assay concerns SKBR3 cells. As to the kind of experiment: SKBR3 Cell Viability Assay. Type of assay: cell-based. Conditions: Homo sapiens, SK-BR-3, 72 hours, CellTiter Glo, read-out: MCL1 CV SKBR3 EC50. How it is done: SKBR3 Cell Viability Assay Materials
SKBR3 Cells (ATCC HTB-30) were obtained from ATCC (Manassas, Va.) and cultured in McCoy 5A's medium (ATCC 30-2007)+10% fetal bovine serum (SH30071.03, HyClone, Pittsburgh, Pa.) plus 1× Penicillin-Streptomycin L-glutamine (Corning 30-009-CI, Corning, N.Y.).
The cell viability assay was conducted in a 384-well tissue culture plate (Grenier 781086, Monroe, N.C.) in a total volume of 70 μL. Test compounds were prepared in 1,000×, serially diluted, and pre-spotted into 384-well tissue culture plate by Echo 555 Liquid Handler (Labcyte Inc., San Jose, Calif.). Seventy μL of 6,000 SKBR3 cells were dispensed into each well of the plate and incubated at 37° C. with 5% CO2 for 72 hours. At the end of incubation, 2× CellTiter Glo (CTG) reagents (1 part buffer with 2 parts substrate) (Promega, Madison, Wis.) were prepared, and the plate and the reagent were equilibrated to room temperature for 30 minutes. CTG reagent was added to each plate by Biomek FX at 20 μL/well with 5 times pipetting and mixing to induce cell lysis. Luminescence was read by Envision multimode reader (PerkinElmer). Percent inhibition was calculated as followed: % Inhibition=100%*(Well−Neg)/(Pos−Neg) Neg, negative control, DMSO Pos, positive control, 10 μM Puromycin
Consider `CO[C@H]1/C=C/C[C@H](C)[C@@H](C)[S@@](=O)(NC(=O)c2cc3n(c2)CCOC3)=NC(=O)c2ccc3c(n2)N(C[C@@H]2CC[C@H]21)C[C@]1(CO3)C[C@@H]2C[C@@H]2c2cc(Cl)ccc21` [Example 206], for which the EC50 was 0.142 µM.

For the compound `CO[C@H]1/C=C/C[C@H](C)C[S@@](=O)(Nc2nc(Cl)nc3cn(C)nc23)=NC(=O)c2ccc3c(c2)N(C[C@@H]2CC[C@H]21)C[C@@]1(CCCc2cc(Cl)ccc21)CO3` [Example 16], the 50% effective concentration (EC50) was 8.14 µM.

Another assay deals with MCL1/Bim (Homo sapiens (Human), UniProt Q07820). As to the kind of experiment: MCL1/Bim Binding AlphaLISA Assay. Conditions: recombinant human 6xHis-MCL1 (171-327), biotinylated Bim peptide (51-76). How it is done: MCL1/Bim Binding AlphaLISA Assay.
Sequence of MCL1/Bim (Q07820 171-327): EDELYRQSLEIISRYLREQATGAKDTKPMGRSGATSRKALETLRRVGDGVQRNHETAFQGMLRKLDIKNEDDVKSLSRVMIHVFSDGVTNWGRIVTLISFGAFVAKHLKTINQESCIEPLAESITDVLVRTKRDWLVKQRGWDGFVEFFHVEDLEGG
Inhibition of the MCL1 and Bim interaction was measured in the following AlphaLISA assay.
Recombinant human MCL1 protein (C-terminal 6×His Tagged MCL1 containing residues 171-327) was generated at Gilead Sciences, Inc. (Foster City, Calif.). A biotinylated peptide derived from human Bim (residues 51-76) was purchased from CPC Scientific (Sunnyvale, Calif.). (CPC 834113). AlphaLISA anti-6His- acceptor beads (AL128R), AlphaScreen Streptavidin donor beads (6760002B), and Proxiplate-384 Plus (6008289) were purchased from PerkinElmer.
The AlphaLISA assay was performed in a 384-well Proxiplate in a total volume of […]. The reaction mixture contained 0.0625 nM 6×His-MCL1 (171-327), 0.0625 nM biotinylated-Bim peptide, 10 μg/mL AlphaLISA anti-6×His-AlphaLISA acceptor beads, 40 μg/mL AlphaScreen streptavidin donor beads, and serially diluted test compounds in the binding buffer (20 mM Hepes, pH 7.5 (Teknova H1035); 150 mM NaCl (Promega V4221); 0.002% Brij 35 (Thermo Scientific 20150); 1 mM Dithiothreitol (DTT) Solution (Affymetrix 70726); 0.01% BSA (BioLabs B9000S)). 1,000× test compounds were pre-spotted onto 384-well Proxiplate (Labcyte Echo) by Echo 555 Liquid Handler (Labcyte Inc., San Jose, Calif.) followed by incubation of 5 μL MCL1(171-327) for 1 hour. Then 5 μL Bim (51-76) was added and incubated for 2 hours. Five μL AlphaLISA anti-6His-AlphaLISA acceptor beads were then added for 1 hour followed by addition of 5 μL AlphaScreen streptavidin donor beads for 1 hour. The reaction plates were then read on an Envision multimode reader (PerkinElmer) using AlphaScreen settings. Percent inhibition was calculated as shown below: % Inhibition=100%*(Well−Neg)/(Pos−Neg) Neg: negative control, DMSO Pos: positive control, no MCL1 protein, no biotinylated-Bim peptide
With `CO[C@H]1/C=C/C[C@H](C)[C@@H](C)[S@@](=O)(NC(=O)c2cc3n(c2)CCOC3)=NC(=O)c2ccc3c(n2)N(C[C@@H]2CC[C@H]21)C[C@]1(CO3)C[C@@H]2C[C@@H]2c2cc(Cl)ccc21` [Example 206], the IC50 was 0.23 nM.

For the compound `COc1nn(C)cc1C(=O)N[S@@]1(=O)=NC(=O)c2ccc3c(c2)N(C[C@@H]2CC[C@H]2[C@@H](OC(=O)c2cn(C)nc2OC)/C=C/[C@H](O)[C@H](C)[C@H]1C)C[C@@]1(CCCc2cc(Cl)ccc21)CO3` [Example 89], the IC50 is 0.53 nM.

Regarding `CO[C@H]1/C=C/C[C@H](C)C[S@@](=O)(Nc2ncccn2)=NC(=O)c2ccc3c(c2)N(C[C@@H]2CC[C@H]21)C[C@@]1(CCCc2cc(Cl)ccc21)CO3` [Example 3], the IC50 was determined as 0.957 nM.

With `COc1nn(C)cc1C(=O)N[S@@]1(=O)=NC(=O)c2ccc3c(c2)N(C[C@@H]2CC[C@H]2[C@H](OC)[C@H](O)[C@@H](O)C[C@H](C)C1)C[C@@]1(CCCc2cc(Cl)ccc21)CO3` [Example 126], the IC50 was 0.13 nM.

With `COCCn1cc2c(N[S@@]3(=O)=NC(=O)c4ccc5c(c4)N(C[C@@H]4CC[C@H]4[C@@H](OC)/C=C/C[C@H](C)C3)C[C@@]3(CCCc4cc(Cl)ccc43)CO5)ncnc2n1` [Example 14], the half-inhibitory concentration (IC50) was found to be 0.965 nM.

For the compound `COc1nn(C)cc1C(=O)N[S@@]1(=O)=NC(=O)c2ccc3c(c2)N(C[C@@H]2CC[C@H]2[C@@H](OC)[C@H](O)[C@@H](O)C[C@H](C)C1)C[C@@]1(CCCc2cc(Cl)ccc21)CO3` [Example 125], the half-maximal inhibitory concentration (IC50) came out at 0.051 nM.

In the case of `COC[C@H]1C/C=C/[C@H](OC)[C@@H]2CC[C@H]2CN2C[C@@]3(CCCc4cc(Cl)ccc43)COc3ccc(cc32)C(=O)N=[S@@](=O)(NC(=O)COC2CCOCC2)C1` [Example 45], the IC50 was 0.088 nM.

For `CO[C@H]1/C=C/C[C@H](C)C[S@@](=O)(Nc2nccc3nn(C)cc23)=NC(=O)c2ccc3c(c2)N(C[C@@H]2CC[C@H]21)C[C@@]1(CCCc2cc(Cl)ccc21)CO3` [Example 7], the half-inhibitory concentration (IC50) is 1.74 nM.

As to `COC[C@@H]1CC=C[C@@H](OC)[C@@H]2CC[C@H]2CN2C[C@@]3(CCCc4cc(Cl)ccc43)COc3ccc(cc32)C(=O)N=[S@](=O)(NC(=O)COC2CCOCC2)C1` [Example 44], the IC50 was 0.648 nM.

With `CO[C@H]1/C=C/C[C@H](C)[C@@H](C)[S@@](=O)(NC(=O)c2cnn(C)c2)=NC(=O)c2ccc3c(c2)N(C[C@@H]2CC[C@H]21)C[C@]1(CO3)C[C@@H]2C[C@@H]2c2cc(Cl)ccc21` [Example 171], the IC50 turned out to be 0.176 nM.

In the case of `CO[C@H]1CCC[C@H](C)C[S@@](=O)(Nc2ncnc3nn(C)cc23)=NC(=O)c2ccc3c(c2)N(C[C@@H]2CC[C@H]21)C[C@@]1(CCCc2cc(Cl)ccc21)CO3` [Example 28], the IC50 came to 0.12 nM.

In the case of `CO[C@H]1/C=C/C[C@H](C)C[S@@](=O)(Nc2ncnc3nn(C)cc23)=NC(=O)c2ccc3c(n2)N(C[C@@H]2CC[C@H]21)C[C@@]1(CCCc2cc(Cl)ccc21)CO3` [Example 194], the IC50 is 0.1 nM.

Regarding `COc1nn(C)cc1C(=O)N[S@@]1(=O)=NC(=O)c2ccc3c(c2)N(C[C@@H]2CC[C@H]2[C@@H](O)C#CC[C@H](C)C1)C[C@@]1(CCCc2cc(Cl)ccc21)CO3` [Example 35], the IC50 amounted to 0.043 nM.

On to `CO[C@H]1/C=C/[C@H](OC)[C@H](C)C[S@@](=O)(Nc2ncnc3nn(C)cc23)=NC(=O)c2ccc3c(c2)N(C[C@@H]2CC[C@H]21)C[C@@]1(CCCc2cc(Cl)ccc21)CO3` [Example 67], for which the IC50 is 0.06 nM.

With `CO[C@H]1/C=C/C[C@H](C)C[S@@](=O)(Nc2cccnn2)=NC(=O)c2ccc3c(c2)N(C[C@@H]2CC[C@H]21)C[C@@]1(CCCc2cc(Cl)ccc21)CO3` [Example 13], the IC50 is 2.12 nM.

Take `COc1nn(C)cc1C(=O)N[S@@]1(=O)=NC(=O)c2ccc3c(c2)N(C[C@@H]2CC[C@H]2[C@@H](OCC(O)CO)/C=C/C[C@H](C)C1)C[C@@]1(CCCc2cc(Cl)ccc21)CO3` (mixture of isomers) [Example 57]: the IC50 was 0.089 nM.

Regarding `COc1nn(C)cc1C(=O)N[S@@]1(=O)=NC(=O)c2ccc3c(c2)N(C[C@@H]2CC[C@H]2[C@H](OC)C#CC[C@H](C)C1)C[C@@]1(CCCc2cc(Cl)ccc21)CO3` [Example 38], the IC50 came to 0.11 nM.

`COc1nn(C)cc1C(=O)N[S@@]1(=O)=NC(=O)c2ccc3c(c2)N(C[C@@H]2CC[C@H]2[C@@](C)(O)/C=C/C[C@H](C)C1)C[C@@]1(CCCc2cc(Cl)ccc21)CO3` [Example 94]: the IC50 was determined as 0.084 nM.

As for `COc1nn(C)cc1C(=O)N[S@@]1(=O)=NC(=O)c2ccc3c(c2)N(C[C@@H]2CC[C@H]2[C@@H](OCCN2CCN(C)CC2)/C=C/C[C@H](C)C1)C[C@@]1(CCCc2cc(Cl)ccc21)CO3` [Example 59], the IC50 worked out at 0.076 nM.

In the case of `COc1nn(C)cc1C(=O)N[S@@]1(=O)=NC(=O)c2ccc3c(c2)N(C[C@@H]2CC[C@H]2[C@](O)(CC(=O)N2CC(N4CCOCC4)C2)/C=C/C[C@H](C)C1)C[C@@]1(CCCc2cc(Cl)ccc21)CO3` [Example 107], the IC50 amounted to 0.036 nM.

Turning to `CO[C@H]1/C=C/CCC[S@@](=O)(NC(=O)c2cnn(C)c2)=NC(=O)c2ccc3c(c2)N(C[C@@H]2CC[C@H]21)C[C@]1(CO3)SCCc2cc(Cl)ccc21` [Example 182], the IC50 came to 0.06 nM.

For `CCn1cc(C(=O)N[S@@]2(=O)=NC(=O)c3ccc4c(n3)N(C[C@@H]3CC[C@H]3[C@@H](OC)/C=C/C[C@H](C)[C@H]2C)C[C@@]2(CCCc3cc(Cl)ccc32)CO4)cn1` [Example 199], the IC50 is 0.17 nM.

As to `CO[C@H]1/C=C/C[C@H](C)C[S@@](=O)(NC(=O)NC2CC2)=NC(=O)c2ccc3c(c2)N(C[C@@H]2CC[C@H]21)C[C@]1(CO3)SCCc2cc(Cl)ccc21` [Example 177], the IC50 stood at 0.09 nM.

Turning to `CO[C@H]1/C=C/C[C@H](C)[C@@H](C)[S@@](=O)(NC(=O)c2cc3n(c2)CCOC3)=NC(=O)c2ccc3c(n2)N(C[C@@H]2CC[C@H]21)C[C@@]1(CCCc2cc(Cl)ccc21)CO3` [Example 202], the IC50 was determined as 0.2 nM.

On to `COc1nn(C)cc1C(=O)N[S@@]1(=O)=NC(=O)c2ccc3c(c2)N(C[C@@H]2CC[C@H]2[C@@H](OC)C/C=C\[C@H](C)C1)C[C@@]1(CCCc2cc(Cl)ccc21)CO3` (mixture of isomers) [Example 128], for which the IC50 is 0.562 nM.

For the compound `COc1nn(C)cc1C(=O)N[S@@]1(=O)=NC(=O)c2ccc3c(c2)N(C[C@@H]2CC[C@H]2[C@@H](OC)/C=C/[C@H](F)[C@H](C)C1)C[C@@]1(CCCc2cc(Cl)ccc21)CO3` [Example 127], the IC50 amounted to 0.059 nM.

With `COc1nn(C)cc1C(=O)N[S@@]1(=O)=NC(=O)c2ccc3c(c2)N(C[C@@H]2CC[C@H]2[C@@H](OC(=O)c2cn(C)nc2OC)CC[C@H](O)[C@H](C)[C@H]1C)C[C@@]1(CCCc2cc(Cl)ccc21)CO3` [Example 90], the IC50 amounted to 2.19 nM.

Regarding `CO[C@H]1/C=C/C[C@H](C)C[S@@](=O)(Nc2ncc(C#N)cn2)=NC(=O)c2ccc3c(c2)N(C[C@@H]2CC[C@H]21)C[C@@]1(CCCc2cc(Cl)ccc21)CO3` [Example 2], the half-maximal inhibitory concentration (IC50) stood at 1.89 nM.

As for `CO[C@H]1/C=C/C[C@H](C)C[S@@](=O)(Nc2nc(O)nc3nn(C)cc23)=NC(=O)c2ccc3c(c2)N(C[C@@H]2CC[C@H]21)C[C@@]1(CCCc2cc(Cl)ccc21)CO3` [Example 11], the IC50 turned out to be 0.183 nM.

As to `CCCO[C@H]1/C=C/[C@H](OC)[C@@H]2CC[C@H]2CN2C[C@@]3(CCCc4cc(Cl)ccc43)COc3ccc(cc32)C(=O)N=[S@](=O)(NC(=O)c2cn(C)nc2OC)C[C@H]1C` [Example 144], the IC50 was found to be 0.202 nM.
